This passage reports EC50 results from US20170152241A9, “BICYCLIC DERIVATIVE CONTAINING PYRIMIDINE RING, AND PREPARATION METHOD THEREFOR” (YUHAN CORPORATION, priority 2013, published 2017).

The term EC50 denotes the midpoint of the concentration-response curve.

Structures are written as SMILES. Counter-ions that a name gives are not always drawn.

The test has as its target T1, human 5-HT4(a) (Homo sapiens, UniProt Q13639).
T1 construct: host or cells: GeneBlAzer HTR4-CRE-bla CHO-K1 cells
The test can be described thus: Evaluation of agonistic activity in CHO-K1 cells expressing human 5-HT4(a) (GeneBlAzer HTR4-CRE-bla, beta-lactamase reporter). Particulars: 5 hours incubation, 8 concentrations. Format: cell-based. The procedure:
Evaluation of Agonistic Activity in CHO-K1 Cells Expressing Human 5-HT4(a)
As CHO-K1 cells stably expressing human 5-HT4(a), we used the GeneBlAzer HTR4-CRE-bla CHO-K1 cells (Invitrogen corp.). The cells were cultured in DMEM medium supplemented with 10% bovine fetal serum (FBS), 25 mM HEPES (pH 7.4), 600 μg/ml Hygromycin B, 0.1 mM non-essential amino acids, 100 unit/ml penicillin and 100 μg/ml streptomycin under the condition of 37° C. and 5% CO2. Subcultures were performed three times per a week, each being at less than 80% confluence. At the previous day before treating test compounds, the cells were collected by using 0.5% trypsin/EDTA, and then diluted with a DMEM supplemented with 1% FBS, 25 mM HEPES and 0.1 mM non-essential amino acids into 3.125×10^5 cells/ml. 32 μl of the diluted cells were added into 384-well plate (10,000 cells/well) and then incubated overnight. The compounds to be used as a test material and a control drug were prepared as 500× of the various final treating concentrations of the drug with 100% DMSO, and then treated to the medium after diluting them to 100-folds to be 1% of the final DMSO concentration equally. After culturing overnight, 8 μl of the medium having 1% of DMSO was added into the cell-free control well and the non-stimulating control well, respectively. 8 μl of the control drug or the test material (which had been prepared by diluting 100-folds with the medium as mentioned in the above) having 1% of DMSO, were added to the respective remaining wells. After culturing in an incubator for 5 hours, the wells of the 384-plate were treated with the substrate solution (8 μl/well) prepared according to the vendor's instruction (i.e. Invitrogen's instruction), and then incubated in the dark room for additional 2 hours. Agonistic activities on 5-HT4 receptor were evaluated, on the basis of fluorescent values of the cleavage-products, which is generated cAMP-concentration dependently per equal time by beta-lactamase. After exciting to 410 nm of wavelength by using Genios Pro Fluorescence Detector, we measured the fluorescence values at two emission wavelengths (first wavelength: 465 nm, second wavelength: 535 nm). Data were analyzed on the basis of the ratio of fluorescence intensities of each well at the respective wavelengths. For all plates, the concentrations-response curve (1 pM-100 nM) of the control drug (Tegaserod) was included. Each EC50 values of the test compounds were calculated by non-linear regression analysis using GraphPad Prism program, based on the concentration-reactivity values according to 8-different concentrations of the test compounds.

T1 sequence (Q13639 1-387 isoform Q13639-2): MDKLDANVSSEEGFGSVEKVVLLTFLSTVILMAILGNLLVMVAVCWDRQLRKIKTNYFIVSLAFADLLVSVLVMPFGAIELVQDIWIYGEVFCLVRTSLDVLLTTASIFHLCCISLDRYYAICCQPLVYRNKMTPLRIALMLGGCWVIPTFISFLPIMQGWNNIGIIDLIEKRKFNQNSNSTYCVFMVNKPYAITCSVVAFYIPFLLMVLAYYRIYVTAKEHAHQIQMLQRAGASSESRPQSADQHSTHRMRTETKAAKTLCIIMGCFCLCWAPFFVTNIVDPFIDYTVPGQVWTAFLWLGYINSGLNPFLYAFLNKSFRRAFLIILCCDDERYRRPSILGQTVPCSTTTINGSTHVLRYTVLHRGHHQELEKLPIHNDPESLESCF

`COc1cc2nc(Nc3cc(N)cc(C(F)(F)F)c3)nc(N3CC[C@H](NC(C)=O)C3)c2cc1OC` [Example 7, (S)—N-{1-(2-[{3-amino-5-(trifluoromethyl)-phenyl}amino]-6,7-dimethoxyquinazolin-4-yl)pyrrolidin-3-yl}acetamide]: a half-maximal response (EC50) required 0.03 nM. This lies in the picomolar range.

Molecule `COc1ccc2nc(Nc3cc(N)cc(C(F)(F)F)c3)nc(N3CC[C@H](NC(C)=O)C3)c2c1` [Example 14, (S)—N-{1-(2-[{3-amino-5-(trifluoromethyl)-phenyl}amino]-6-methoxyquinazolin-4-yl)pyrrolidin-3-yl}-acetamide] showed an EC50 of 0.02 nM.

With `COc1ccc2nc(Nc3cc(N)cc(C#N)c3)nc(N3CCC[C@@H](NC(C)=O)C3)c2c1` [Example 21, (R)—N-(1-[2-{(3-amino-5-cyanophenyl)-amino}-6-methoxyquinazolin-4-yl]piperidin-3-yl)acetamide], the EC50 was found to be 0.01 nM.

In the case of `CC(=O)N[C@H]1CCN(c2nc(Nc3cc(N)cc(C#N)c3)nc3cc(C(F)(F)F)ccc23)C1` [Example 28, (S)—N-(1-[2-{(3-amino-5-cyanophenyl)amino}-7-(trifluoromethyl)quinazolin-4-yl]pyrrolidin-3-yl)-acetamide], it took 0.39 nM to reach a half-maximal effect (EC50). The figure for `N#Cc1cc(N)cc(Nc2nc(N3CC[C@H](N)C3)c3ccccc3n2)c1` [Example 31, (S)-3-amino-5-{4-(3-aminopyrrolidin-1-yl)-quinazolin-2-ylamino}benzonitrile dihydrochloride] is 0.03 nM; for `N#Cc1cc(N)cc(Nc2nc(N3CC[C@H](NC(=O)Cc4cccs4)C3)c3ccccc3n2)c1` [Example 37, (S)—N-[1-{2-(3-amino-5-cyanophenylamino)quinazolin-4-yl}pyrrolidin-3-yl]-2-(thiophen-2-yl)acetamide] it is 0.03 nM; for `CCCCCN[C@H]1CCN(c2nc(Nc3cc(N)cc(C#N)c3)nc3ccccc23)C1` [Example 41, (S)-3-amino-5-[4-{3-(pentylamino)-pyrrolidin-1-yl}quinazolin-2-ylamino]benzonitrile] it is 0.0024 nM. `CC(C)N[C@H]1CCN(c2nc(Nc3cc(N)cc(C#N)c3)nc3ccccc23)C1` [Example 46, (S)-3-amino-5-[4-{3-(isopropylamino)pyrrolidin-1-yl}quinazolin-2-ylamino]benzonitrile] showed an EC50 of 0.05 nM.

The molecule `COc1cccc2c(N3CCC[C@@H](NC(C)=O)C3)nc(Nc3cc(N)cc(C(F)(F)F)c3)nc12` [Example 64, (R)—N-[1-{2-(3-amino-5-trifluoromethylphenylamino)-8-methoxyquinazolin-4-yl}piperidin-3-yl]acetamide] registered a half-maximal effective concentration (EC50) of 0.03 nM. Against the preceding molecule, the EC50 is about 1.7-fold lower. Turning to `CN[C@H]1CCN(c2nc(Nc3cc(N)cc(C#N)c3)nc3cccc(C)c23)C1` [Example 68, (S)-3-amino-5-[5-methyl-4-{3-(methylamino)pyrrolidin-1-yl}quinazolin-2-ylamino]benzonitrile], the EC50 worked out at 0.08 nM. The figure for `CC(=O)N[C@@H]1CCCN(c2nc(Nc3ccc(N)c(C(F)(F)F)c3)nc3c(C)cccc23)C1` [Example 80, (R)—N-(1-[2-{4-amino-3-(trifluoromethyl)phenylamino}-8-methylquinazolin-4-yl]piperidin-3-yl)acetamide hydrochloride] is 0.04 nM. The figure for `CC(=O)N[C@H]1CCN(c2nc(Nc3cc(N)cc(C#N)c3)nc3cc(Cl)ccc23)C1` [Example 81, (S)—N-[1-{2-(3-amino-5-cyanophenylamino)-7-chloroquinazolin-4-yl}pyrrolidin-3-yl]acetamide hydrochloride] is 0.06 nM. On to `CC(=O)N[C@H]1CCN(c2nc(Nc3cc(N)cc(C#N)c3)nc3cc(F)ccc23)C1` [Example 85, (S)—N-[1-{2-(3-amino-5-cyanophenylamino)-7-fluoroquinazolin-4-yl}pyrrolidin-3-yl]acetamide hydrochloride], for which a half-maximal response (EC50) required 0.04 nM. Molecule `CC(=O)N[C@H]1CCN(c2nc(Nc3cc(N)cc(C#N)c3)nc3c2CCCC3)C1` [Example 88, (S)—N-[1-{2-(3-amino-5-cyanophenylamino)-5,6,7,8-tetrahydroquinazolin-4-yl}pyrrolidin-3-yl]acetamide] showed an EC50 of 0.01 nM.

In the case of `CCN[C@H]1CCN(c2nc(Nc3cc(N)cc(C#N)c3)nc3c2CCCC3)C1` [Example 105, (S)-3-amino-5-[4-{3-(ethylamino)pyrrolidin-1-yl}-5,6,7,8-tetrahydroquinazolin-2-ylamino]benzonitrile dihydrochloride], the EC50 came out at 0.01 nM. As to `CNC(=O)[C@@H]1CCCN(c2nc(Nc3cc(N)cc(C(F)(F)F)c3)nc3c2CCCC3)C1` [Example 123, (R)-1-[2-{3-amino-5-(trifluoromethyl)phenylamino}-5,6,7,8-tetrahydroquinazolin-4-yl]-N-methylpiperidine-3-carboxamide], the midpoint of the response, the EC50, lay at 0.01 nM.

Regarding `CC(=O)N[C@H]1CCN(c2nc(Nc3ccc(Cl)c(N)c3)nc3ccccc23)C1` [Example 133, (S)—N-(1-[2-{(3-amino-4-chlorophenyl)amino}quinazolin-4-yl]pyrrolidin-3-yl)acetamide], the EC50 was determined as 0.03 nM. The molecule `CCN[C@H]1CCN(c2nc(Nc3cc(N)cc(C#N)c3)nc3ccccc23)C1` [Example 141, (S)-3-amino-5-([4-{3-(ethylamino)pyrrolidin-1-yl}quinazolin-2-yl]amino)benzonitrile] had an EC50 of 0.01 nM. The figure for `COc1ccc2c(N3CC[C@H](NC(C)=O)C3)nc(Nc3cc(N)cc(C#N)c3)nc2c1` [Example 147, (S)—N-(1-[2-{(3-amino-5-cyanophenyl)amino}-7-methoxyquinazolin-4-yl]pyrrolidin-3-yl)acetamide] is 0.01 nM. The molecule `CCCN[C@H]1CCN(c2nc(Nc3cc(N)cc(C#N)c3)nc3cccnc23)C1` [Example 159, (S)-3-amino-5-([4-{3-(propylamino)pyrrolidin-1-yl}pyrido[3,2-d]pyrimidin-2-yl]amino)benzonitrile dihydrochloride] displayed a half-maximal effective concentration (EC50) of 0.01 nM. The figure for `Nc1cc(Nc2nc(N3CCC[C@@H](N)C3)c3ncccc3n2)cc(C(F)(F)F)c1` [Example 167, (R)—N^1-{4-(3-aminopiperidin-1-yl)pyrido[3,2-d]pyrimidin-2-yl}-5-trifluoromethyl)benzene-1,3-diamine dihydrochloride] is 0.09 nM. The molecule `CC(=O)N[C@H]1CCN(c2nc(Nc3cc(N)cc(C#N)c3)nc3c2CCC3)C1` [Example 168, (S)—N-(1-[2-{(3-amino-5-cyanophenyl)amino}-6,7-dihydro-5H-cyclopenta[d]pyrimidin-4-yl]pyrrolidin-3-yl)acetamide hydrochloride] gave a concentration for a half-maximal effect (EC50) of 0.01 nM.

The molecule `N#Cc1cc(N)cc(Nc2nc3c(c(N4CC[C@H](N)C4)n2)CCC3)c1` [Example 174, (S)-3-amino-5-[{4-(3-aminopyrrolidin-1-yl)-6,7-dihydro-5H-cyclopenta[d]pyrimidin-2-yl}amino]benzonitrile dihydrochloride] gave an EC50 of 0.02 nM. This EC50 is about 2-fold higher than that of the molecule before. Take `CCCN[C@H]1CCN(c2nc(Nc3cc(N)cc(C#N)c3)nc3c2CCC3)C1` [Example 184, (S)-3-amino-5-([4-{3-(propylamino)pyrrolidin-1-yl}-6,7-dihydro-5H-cyclopenta[d]pyrimidin-2-yl]amino)benzonitrile dihydrochloride]: the EC50 came to 0.01 nM. This EC50 lies about 2-fold lower than the previous one.

`CC(=O)N[C@@H]1CCCN(c2nc(Nc3ccc(N)c([N+](=O)[O-])c3)nc3c2CCC3)C1` [Example 198, (R)—N-(1-[2-{(4-amino-3-nitrophenyl)amino}-6,7-dihydro-5H-cyclopenta[d]pyrimidin-4-yl]piperidin-3-yl}acetamide hydrochloride]: the EC50 was 0.01 nM. This lies in the picomolar range. `N#Cc1cc(N)cc(Nc2nc3c(c(N4CCC[C@@H](N)C4)n2)CCC3)c1` [Example 199, (R)-3-amino-5-[{4-(3-aminopiperidin-1-yl)-6,7-dihydro-5H-cyclopenta[d]pyrimidin-2-yl}amino]benzonitrile dihydrochloride] had an EC50 of 0.02 nM. Compared with the last molecule, the EC50 is about 2-fold higher. The molecule `CN[C@@H]1CCCN(c2nc(Nc3cc(N)cc(C#N)c3)nc3c2CCC3)C1` [Example 204, (R)-3-amino-5-([4-{3-(methylamino)piperidin-1-yl}-6,7-dihydro-5H-cyclopenta[d]pyrimidin-2-yl]amino)benzonitrile dihydrochloride] gave an EC50 of 0.01 nM. As for `CN[C@@H]1CCCN(c2nc(Nc3cc(N)cc(C(F)(F)F)c3)nc3c2CCCC3)C1` [Example 213, (R)—N^1-[4-{3-(methylamino)piperidin-1-yl}-5,6,7,8-tetrahydroquinazolin-2-yl]-5-(trifluoromethyl)benzene-1,3-diamine dihydrochloride], it took 0.016 nM to reach a half-maximal effect (EC50).
